Laboratory results taken from DBAASP.
≈ marks a conversion by molar mass, not a printed value.

What was measured:
Experiment in all cases: ≥ marks a high value that may be exact or a test limit, other limits are often not marked, values filed in µg/mL are converted to µM
[1] = test system: Candida albicans NCYC 1467
[2] = test system: Enterococcus faecalis NCTC 12697
[3] = test system: Escherichia coli NCTC 10418
[4] = test system: Pseudomonas aeruginosa ATCC 27853
[5] = test system: Staphylococcus aureus NCTC 10788
[6] = test system: Staphylococcus aureus NCTC 12493
[7] = test system: Candida albicans NCPF 1467
[8] = test system: Staphylococcus aureus ATCC 12493
Acinetobacter baumannii = test system: Acinetobacter baumannii
[9] = test system: Escherichia coli ATCC 25922
Escherichia coli K88 = test system: Escherichia coli K88
Escherichia coli K99 = test system: Escherichia coli K99
Escherichia coli UB1005 = test system: Escherichia coli UB1005
Escherichia coli = test system: Escherichia coli
Klebsiella pneumoniae = test system: Klebsiella pneumoniae
[10] = test system: Pseudomonas aeruginosa CICC 21625
[11] = test system: Pseudomonas aeruginosa CICC 21630
[12] = test system: Pseudomonas aeruginosa PAO1
Pseudomonas aeruginosa = test system: Pseudomonas aeruginosa
[13] = test system: Salmonella enterica subsp. enterica serovar Pullorum C79-13
[14] = test system: Salmonella enterica subsp. enterica serovar Typhimurium ATCC 14028
[15] = test system: Salmonella enterica subsp. enterica serovar Typhimurium C77-31

| MIC [2] | MIC [3] | MIC [4] | MIC [5] | MIC [8] | MIC (Acinetobacter baumannii) | MIC [9] | MIC (Escherichia coli K88) | MIC (Escherichia coli K99) | MIC (Escherichia coli UB1005) | MIC (Escherichia coli) | MIC (Klebsiella pneumoniae) | MIC [10] | MIC [11] | MIC [12] | MIC (Pseudomonas aeruginosa) | MIC [13] | MIC [14] | MIC [15] | Compound | other results |
| --- | --- | --- | --- | --- | --- | --- | --- | --- | --- | --- | --- | --- | --- | --- | --- | --- | --- | --- | --- | --- |
| ≥ 128 µM | ≥ 512 µM | > 512 µM | 22.6 µM (≈ 52.3 µg/mL) |  |  |  |  |  |  |  |  |  |  |  |  |  |  |  | CC[C@H](C)[C@H](NC(=O)CNC(=O)[C@H](CCC(N)=O)NC(=O)[C@@H](NC(=O)[C@H](C)NC(=O)[C@H](Cc1cnc[nH]1)NC(=O)[C@@H]1CCCN1C(=O)[C@@H](NC(=O)[C@H](CC(C)C)NC(=O)[C@@H]1CCCN1C(=O)[C@@H](NC(=O)[C@H](CC(C)C)NC(=O)[C@H](Cc1cnc[nH]1)NC(=O)[C@H](CCC(N)=O)NC(=O)[C@@H](NC(=O)[C@@H](N)Cc1ccccc1)[C@@H](C)CC)[C@@H](C)CC)[C@@H](C)CC)[C@@H](C)CC)C(=O)N[C@@H](CCCCN)C(=O)N[C@@H](CC(=O)O)C(=O)N[C@H](C(=O)N[C@@H](Cc1ccccc1)C(N)=O)[C@@H](C)CC [FIQHLIPLIPHAIQGIKDIF] | MIC [1]: ≥ 90.5 µM; MIC [6]: ≥ 45.3 µM |
| ≥ 512 µM | ≥ 512 µM | > 512 µM | ≥ 256 µM | ≥ 512 µM |  |  |  |  |  |  |  |  |  |  |  |  |  |  | CC[C@H](C)[C@H](NC(=O)CNC(=O)[C@@H]1CCCN1C(=O)[C@H](CC(C)C)NC(=O)[C@@H](N)Cc1ccccc1)C(=O)N[C@@H](CC(C)C)C(=O)N[C@@H](CCCCN)C(=O)N[C@H](C(=O)N[C@@H](C)C(=O)N[C@@H](C)C(=O)N[C@@H](CCCCN)C(N)=O)C(C)C [FLPGILKVAAK] | MIC [7]: ≥ 512 µM |
|  |  | > 64 µM |  |  | ≥ 64 µM | > 64 µM | ≥ 64 µM | ≥ 64 µM | ≥ 64 µM | > 64 µM | > 64 µM | ≥ 64 µM | ≥ 64 µM | > 64 µM | > 64 µM | ≥ 64 µM | > 64 µM | ≥ 64 µM | CC[C@H](C)[C@H](N)C(=O)N[C@@H](CCCCN)C(=O)N1CCC[C@H]1C(=O)N[C@H](C(=O)N[C@H](C(=O)N[C@@H](CCCCN)C(=O)N1CCC[C@H]1C(=O)N[C@H](C(=O)N[C@H](C(=O)N[C@@H](CCCCN)C(=O)N1CCC[C@H]1C(=O)N[C@H](C(=O)N[C@H](C(=O)N[C@@H](CCCCN)C(=O)N1CCC[C@H]1C(=O)N[C@H](C(=O)N[C@H](C(=O)N[C@@H](CCCCN)C(=O)N1CCC[C@H]1C(=O)N[C@H](C(N)=O)[C@@H](C)CC)[C@@H](C)CC)[C@@H](C)CC)[C@@H](C)CC)[C@@H](C)CC)[C@@H](C)CC)[C@@H](C)CC)[C@@H](C)CC)[C@@H](C)CC [IKPIIKPIIKPIIKPIIKPI] |  |
|  |  | 32 µM (≈ 77.3 µg/mL) |  |  | 4 µM (≈ 9.66 µg/mL) | 8 µM (≈ 19.3 µg/mL) | 1 µM (≈ 2.42 µg/mL) | 4 µM (≈ 9.66 µg/mL) | 4 µM (≈ 9.66 µg/mL) | 8 µM (≈ 19.3 µg/mL) | 8 µM (≈ 19.3 µg/mL) | ≥ 64 µM | ≥ 64 µM | 64 µM (≈ 155 µg/mL) | > 64 µM | 8 µM (≈ 19.3 µg/mL) | 8 µM (≈ 19.3 µg/mL) | 16 µM (≈ 38.6 µg/mL) | CC[C@H](C)[C@H](N)C(=O)N[C@@H](CCCN=C(N)N)C(=O)N1CCC[C@H]1C(=O)N[C@H](C(=O)N[C@H](C(=O)N[C@@H](CCCN=C(N)N)C(=O)N1CCC[C@H]1C(=O)N[C@H](C(=O)N[C@H](C(=O)N[C@@H](CCCN=C(N)N)C(=O)N1CCC[C@H]1C(=O)N[C@H](C(=O)N[C@H](C(=O)N[C@@H](CCCN=C(N)N)C(=O)N1CCC[C@H]1C(=O)N[C@H](C(=O)N[C@H](C(=O)N[C@@H](CCCN=C(N)N)C(=O)N1CCC[C@H]1C(=O)N[C@H](C(N)=O)[C@@H](C)CC)[C@@H](C)CC)[C@@H](C)CC)[C@@H](C)CC)[C@@H](C)CC)[C@@H](C)CC)[C@@H](C)CC)[C@@H](C)CC)[C@@H](C)CC [IRPIIRPIIRPIIRPIIRPI] |  |
|  |  | 2 µM (≈ 6.36 µg/mL) |  |  | 1 µM (≈ 3.18 µg/mL) | 0.5 µM (≈ 1.59 µg/mL) | 0.5 µM (≈ 1.59 µg/mL) | 1 µM (≈ 3.18 µg/mL) | 1 µM (≈ 3.18 µg/mL) | 2 µM (≈ 6.36 µg/mL) | 1 µM (≈ 3.18 µg/mL) | 8 µM (≈ 25.4 µg/mL) | 2 µM (≈ 6.36 µg/mL) | 1 µM (≈ 3.18 µg/mL) | 5.66 µM (≈ 18 µg/mL) | 2 µM (≈ 6.36 µg/mL) | 1 µM (≈ 3.18 µg/mL) | 2 µM (≈ 6.36 µg/mL) | CC(C)C[C@H](NC(=O)[C@@H]1CCCN1C(=O)[C@H](CCCCN)NC(=O)[C@H](CC(C)C)NC(=O)[C@H](CC(C)C)NC(=O)[C@@H]1CCCN1C(=O)[C@H](CCCCN)NC(=O)[C@H](CC(C)C)NC(=O)[C@H](CC(C)C)NC(=O)[C@@H]1CCCN1C(=O)[C@H](CCCCN)NC(=O)[C@H](CC(C)C)NC(=O)[C@H](CC(C)C)NC(=O)[C@@H]1CCCN1C(=O)[C@H](CCCCN)NC(=O)[C@H](CC(C)C)NC(=O)[C@H](CC(C)C)NC(=O)[C@@H]1CCCN1C(=O)[C@H](CCCCN)NC(=O)[C@H](CC(C)C)NC(=O)[C@H](CC(C)C)NC(=O)[C@@H]1CCCN1C(=O)[C@H](CCCCN)NC(=O)[C@H](CC(C)C)NC(=O)[C@H](CC(C)C)NC(=O)[C@@H]1CCCN1C(=O)[C@H](CCCCN)NC(=O)[C@@H](N)CC(C)C)C(N)=O [LKPLLKPLLKPLLKPLLKPLLKPLLKPL] |  |
|  |  | 4 µM (≈ 10.9 µg/mL) |  |  | 4 µM (≈ 10.9 µg/mL) | 1 µM (≈ 2.73 µg/mL) | 1 µM (≈ 2.73 µg/mL) | 2 µM (≈ 5.45 µg/mL) | 2 µM (≈ 5.45 µg/mL) | 2 µM (≈ 5.45 µg/mL) | 8 µM (≈ 21.8 µg/mL) | ≥ 64 µM | ≥ 32 µM | 4 µM (≈ 10.9 µg/mL) | 45.3 µM (≈ 123 µg/mL) | 4 µM (≈ 10.9 µg/mL) | 4 µM (≈ 10.9 µg/mL) | 8 µM (≈ 21.8 µg/mL) | CC(C)C[C@H](NC(=O)[C@@H]1CCCN1C(=O)[C@H](CCCCN)NC(=O)[C@H](CC(C)C)NC(=O)[C@H](CC(C)C)NC(=O)[C@@H]1CCCN1C(=O)[C@H](CCCCN)NC(=O)[C@H](CC(C)C)NC(=O)[C@H](CC(C)C)NC(=O)[C@@H]1CCCN1C(=O)[C@H](CCCCN)NC(=O)[C@H](CC(C)C)NC(=O)[C@H](CC(C)C)NC(=O)[C@@H]1CCCN1C(=O)[C@H](CCCCN)NC(=O)[C@H](CC(C)C)NC(=O)[C@H](CC(C)C)NC(=O)[C@@H]1CCCN1C(=O)[C@H](CCCCN)NC(=O)[C@H](CC(C)C)NC(=O)[C@H](CC(C)C)NC(=O)[C@@H]1CCCN1C(=O)[C@H](CCCCN)NC(=O)[C@@H](N)CC(C)C)C(N)=O [LKPLLKPLLKPLLKPLLKPLLKPL] |  |
| ≥ 32 µM | 16 µM (≈ 27.5 µg/mL) | 64 µM (≈ 110 µg/mL) | 8 µM (≈ 13.7 µg/mL) | 16 µM (≈ 27.5 µg/mL) |  |  |  |  |  |  |  |  |  |  |  |  |  |  | CC(C)C[C@H](NC(=O)[C@H](C)NC(=O)[C@H](C)NC(=O)[C@H](CC(C)C)NC(=O)[C@H](CC(N)=O)NC(=O)[C@@H](NC(=O)[C@@H](NC(=O)[C@H](CC(C)C)NC(=O)[C@H](CCCCN)NC(=O)[C@H](CCCCN)NC(=O)[C@@H](NC(=O)[C@@H](NC(=O)[C@@H](NC(=O)[C@H](CC(C)C)NC(=O)[C@H](Cc1ccccc1)NC(=O)[C@@H](N)CO)[C@@H](C)O)[C@@H](C)O)C(C)C)C(C)C)[C@@H](C)O)C(N)=O [SFLTTVKKLVTNLAAL] | MIC [7]: 16 µM (≈ 27.5 µg/mL) |

| Compound | MIC [2] | MIC [3] | MIC [4] | MIC [5] | MIC [8] | MIC (Acinetobacter baumannii) | MIC [9] | MIC (Escherichia coli K88) | MIC (Escherichia coli K99) | MIC (Escherichia coli UB1005) | MIC (Escherichia coli) | MIC (Klebsiella pneumoniae) | MIC [10] | MIC [11] | MIC [12] | MIC (Pseudomonas aeruginosa) | MIC [13] | MIC [14] | MIC [15] | other results |
| --- | --- | --- | --- | --- | --- | --- | --- | --- | --- | --- | --- | --- | --- | --- | --- | --- | --- | --- | --- | --- |
| CC[C@H](C)[C@@H]1NC(=O)[C@H](CO)NC(=O)[C@H](CCCCN)NC(=O)[C@H]([C@@H](C)O)NC(=O)[C@H](Cc2c[nH]c3ccccc23)NC(=O)[C@@H](NC(=O)[C@H](CCCN=C(N)N)NC(=O)[C@H](CCCN=C(N)N)NC(=O)[C@H](CCCN=C(N)N)NC(=O)[C@H](CCC(N)=O)NC(=O)[C@H](CCCN=C(N)N)NC(=O)[C@H](CCCN=C(N)N)NC(=O)[C@H](CCCCN)NC(=O)[C@H](CCCCN)NC(=O)[C@@H](N)CCCN=C(N)N)CSSC[C@@H](C(=O)O)NC(=O)[C@@H]2CCCN2C(=O)[C@H](CCCCN)NC(=O)[C@@H]2CCCN2C(=O)[C@@H]2CCCN2C1=O [RKKRRQRRRCWTKSIPPKPC] |  | ≥ 128 µM | 256 µM (≈ 660 µg/mL) | ≥ 128 µM | ≥ 256 µM |  |  |  |  |  |  |  |  |  |  |  |  |  |  | MIC [1]: 4 µM (≈ 10.3 µg/mL) |
